Reference: patent publication US8278469B2, “17-hydroxy-17-pentafluoroethyl-estra-4,9(10)-dien-11-aryl derivatives, method of production thereof and use thereof for the treatment of diseases” (Bayer Pharma Aktiengesellschaft, priority 2009, dated 2012)
Where two headings read alike, the source gives them in different places.

How the values were obtained:
[1] = target: T1, human progesterone receptor A (PR-A) (Homo sapiens, UniProt P06401); assay: Progesterone receptor-antagonistic action in stable transfectants of SK-N-MC cells with human PR-A and MTV-LUC reporter; format: cell-based; conditions: for Emax: read-out: Progesterone receptor A (PR-A) Efficacy
T1 construct: expressed in transfected cells; host or cells: SK-N-MC human neuroblastoma cells, stably transfected with pRChPR-A-neo and pMMTV-LUC
T1 sequence (P06401 1-769 isoform P06401-2): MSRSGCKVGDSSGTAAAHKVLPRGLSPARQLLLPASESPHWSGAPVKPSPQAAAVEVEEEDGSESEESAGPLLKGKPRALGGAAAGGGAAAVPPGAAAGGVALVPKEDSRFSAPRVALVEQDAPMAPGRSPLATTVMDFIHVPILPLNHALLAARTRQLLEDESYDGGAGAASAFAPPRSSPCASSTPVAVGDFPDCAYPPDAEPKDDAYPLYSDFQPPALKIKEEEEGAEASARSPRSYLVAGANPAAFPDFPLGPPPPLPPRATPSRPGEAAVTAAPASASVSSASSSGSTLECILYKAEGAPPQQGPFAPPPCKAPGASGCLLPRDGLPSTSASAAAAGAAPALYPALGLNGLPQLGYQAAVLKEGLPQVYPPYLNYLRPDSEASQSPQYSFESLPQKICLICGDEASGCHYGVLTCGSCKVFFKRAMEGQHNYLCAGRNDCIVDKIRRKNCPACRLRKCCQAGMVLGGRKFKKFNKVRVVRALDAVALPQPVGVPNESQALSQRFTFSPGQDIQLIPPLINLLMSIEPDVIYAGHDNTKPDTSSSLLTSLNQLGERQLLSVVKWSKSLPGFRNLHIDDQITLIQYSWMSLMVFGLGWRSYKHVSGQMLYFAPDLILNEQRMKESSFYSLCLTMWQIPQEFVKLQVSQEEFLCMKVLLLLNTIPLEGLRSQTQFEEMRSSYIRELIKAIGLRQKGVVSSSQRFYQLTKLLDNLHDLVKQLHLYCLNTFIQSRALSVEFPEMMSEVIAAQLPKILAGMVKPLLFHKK
Protocol: (§1) Progesterone Receptor-Antagonistic Action in Stable Transfectants of Human Neuroblastoma Cells (SK-N-MC Cells) with the Human Progesterone A or Progesterone B Receptor and an MTV-LUC Reporter Construct
(§2) SK-N-MC cells (human neuroblastoma cells), which have been stably transfected with plasmids, which express the human progesterone receptor B (pRChPR-B-neo) or the human progesterone receptor A (pRChPR-A-neo) and a reporter construct (pMMTV-LUC), were incubated for 24 hours either in the absence (negative control) or in the presence of increasing amounts of the respective test compound (0.01 nmol/l, 0.1 nmol/l, 1 nmol/l, 10 nmol/l, 100 nmol/l and 1 μmol/l), in order to determine the agonistic efficacy. As positive control of reporter gene induction, the cells were treated with the synthetic gestagen promegestone (0.01 nmol/l, 0.1 nmol/l, 1 nmol/l, 10 nmol/l, 100 nmol/l and 1 μmol/l). For determination of the antagonistic activity, the cells were treated with 0.1 nmol/l promegestone and additionally with increasing amounts of the respective test compound (0.01 nmol/l, 0.1 nmol/l, 1 nmol/l, 10 nmol/l, 100 nmol/l and 1 μmol/l). The activity of the LUC reporter gene (LUC=luciferase) was determined in the cell lysates and was measured as RLU (relative light units). All measured values are given as percentage efficacy and as EC50 or IC50 concentrations.
(§3) 11β-(4-Acetylphenyl)-20,20,21,21,21-pentafluoro-17-hydroxy-19-nor-17α-pregna-4,9-dien-3-one and 20,20,21,21,21-pentafluoro-17-hydroxy-11β-[4-(hydroxyacetyl)phenyl]-19-nor-17α-pregna-4,9-dien-3-one, very potent and therefore preferred examples from WO98/34947 and WO2008/058767, were tested as comparative compounds along with the test compound.

[2] = target: T2, human progesterone receptor B (PR-B) (Homo sapiens, UniProt P06401); assay: Progesterone receptor-antagonistic action in stable transfectants of SK-N-MC cells with human PR-B and MTV-LUC reporter; format: cell-based; conditions: for Emax: read-out: Progesterone receptor B (PR-B) Efficacy
T2 construct: expressed in transfected cells; host or cells: SK-N-MC human neuroblastoma cells, stably transfected with pRChPR-B-neo and pMMTV-LUC
T2 sequence (P06401 1-933): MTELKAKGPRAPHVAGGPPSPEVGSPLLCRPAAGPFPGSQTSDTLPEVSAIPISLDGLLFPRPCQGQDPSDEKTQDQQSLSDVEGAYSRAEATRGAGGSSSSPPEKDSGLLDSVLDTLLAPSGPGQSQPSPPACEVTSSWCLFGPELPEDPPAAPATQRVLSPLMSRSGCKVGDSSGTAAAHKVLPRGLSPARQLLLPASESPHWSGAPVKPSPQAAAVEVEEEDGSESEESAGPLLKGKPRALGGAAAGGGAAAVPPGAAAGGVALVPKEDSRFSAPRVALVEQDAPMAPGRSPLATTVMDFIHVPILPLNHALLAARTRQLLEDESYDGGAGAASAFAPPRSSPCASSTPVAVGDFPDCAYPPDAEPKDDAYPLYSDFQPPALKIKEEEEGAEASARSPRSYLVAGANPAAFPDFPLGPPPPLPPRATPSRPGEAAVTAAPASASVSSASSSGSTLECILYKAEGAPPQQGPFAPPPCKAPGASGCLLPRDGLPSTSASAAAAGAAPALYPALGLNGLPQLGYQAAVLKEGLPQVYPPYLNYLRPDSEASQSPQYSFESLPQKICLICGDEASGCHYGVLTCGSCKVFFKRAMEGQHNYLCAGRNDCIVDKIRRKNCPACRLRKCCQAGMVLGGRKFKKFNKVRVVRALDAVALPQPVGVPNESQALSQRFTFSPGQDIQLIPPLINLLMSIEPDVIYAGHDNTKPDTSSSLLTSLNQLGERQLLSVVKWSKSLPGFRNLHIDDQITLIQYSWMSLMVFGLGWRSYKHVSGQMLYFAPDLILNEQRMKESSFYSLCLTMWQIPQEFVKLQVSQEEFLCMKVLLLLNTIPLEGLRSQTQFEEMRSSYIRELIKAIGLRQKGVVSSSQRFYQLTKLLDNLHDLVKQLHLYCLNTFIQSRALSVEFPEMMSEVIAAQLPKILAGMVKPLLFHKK
Protocol: as §1, §2, §3

[3] = antagonistic efficacy against 0.1 nmol/l promegestone, SK-N-MC cells, 24 hours
[4] = antagonistic activity against 0.1 nmol/l promegestone, SK-N-MC cells, 24 hours, LUC reporter, read-out: Progesterone receptor A (PR-A) Potency IC50
[5] = antagonistic activity against 0.1 nmol/l promegestone, SK-N-MC cells, 24 hours, LUC reporter, read-out: Progesterone receptor B (PR-B) Potency IC50

Compound	Emax [1, 3] [%]	Emax [2, 3] [%]	Emax ([1]; SK-N-MC, 24 h) [%]	IC50 [1, 4] [nM]	Emax ([2]; SK-N-MC, 24 h) [%]	IC50 [2, 5] [nM]	IC50 [1] [nM]	IC50 [2] [nM]
CN(C)S(=O)(=O)c1ccc([C@H]2C[C@@]3(C)[C@@H](CC[C@@]3(O)C(F)(F)C(F)(F)F)[C@@H]3CCC4=CC(=O)CCC4=C32)cc1 [Example 15, 4-[(11β,17β)-17-Hydroxy-3-oxo-17-(pentafluoroethyl)estra-4,9-dien-11-yl]-N,N-dimethylbenzene sulphonamide]	100	100						
C[C@]12C[C@H](c3ccc(S(C)(=N)=O)cc3)C3=C4CCC(=O)C=C4CCC3C1CC[C@@]2(O)C(F)(F)C(F)(F)F (stereo partly drawn) [Example 8, (11β,17β)-17-Hydroxy-11-[4-(RS-methylsulphonimidoyl)phenyl]-17-(pentafluoroethyl)estra-4,9-dien-3-one]			100	0.9	100	0.9		
CN(C)S(=O)(=O)c1ccc(-c2ccc([C@H]3C[C@@]4(C)[C@@H](CC[C@@]4(O)C(F)(F)C(F)(F)F)[C@@H]4CCC5=CC(=O)CCC5=C43)cc2)cc1 [Example 14, 4′-[(11β,17β)-17-hydroxy-3-oxo-17-(pentafluoroethyl)estra-4,9-dien-11-yl]-N,N-dimethylbiphenyl-4-sulphonamide]	100	100						
CCSc1ccc([C@H]2C[C@@]3(C)C(CC[C@@]3(O)C(F)(F)C(F)(F)F)C3CCC4=CC(=O)CCC4=C32)cc1 (stereo partly drawn) [Example 2, (11β,17β)-11-[4-(ethylsulphanyl)phenyl]-17-hydroxy-17-(pentafluoroethyl)estra-4,9-dien-3-one]	100	100						
C[C@]12C[C@H](c3ccc(SCc4ccccc4)cc3)C3=C4CCC(=O)C=C4CCC3C1CC[C@@]2(O)C(F)(F)C(F)(F)F (stereo partly drawn) [Example 6, (11β,17β)-11-[4-(benzylsulphanyl)phenyl]-17-hydroxy-17-(pentafluoroethyl)estra-4,9-dien-3-one]	100	100		0.2		0.23		
C[C@]12C[C@H](c3ccc(-c4ccc(S)cc4)cc3)C3=C4CCC(=O)C=C4CC[C@H]3[C@@H]1CC[C@@]2(O)C(F)(F)C(F)(F)F [Example 13, (11β,17β)-17-hydroxy-17-(pentafluoroethyl)-11-(4′-sulphanylbiphenyl-4-yl)estra-4,9-dien-3-one]	100	100		0.072		0.072		
C[S+]([O-])c1ccc([C@H]2C[C@@]3(C)[C@@H](CC[C@@]3(O)C(F)(F)C(F)(F)F)[C@@H]3CCC4=CC(=O)CCC4=C32)cc1 (mixture of isomers) [Example 3, (11β,17β)-17-Hydroxy-11-{4-[(RS)-methylsulphinyl]phenyl}-17-(pentafluoroethyl)estra-4,9-dien-3-one]			100	0.11	100	0.12		
Cc1ccc(S(=O)(=O)N=S(C)(=O)c2ccc([C@H]3C[C@@]4(C)C(CC[C@@]4(O)C(F)(F)C(F)(F)F)C4CCC5=CC(=O)CCC5=C43)cc2)cc1 (mixture of isomers) [Example 7, N-[{4-[(11β,17β)-17-hydroxy-3-oxo-17-(pentafluoroethyl)estra-4,9-dien-11-yl]phenyl}(RS)(methyl)oxido-λ^6-sulphanylidene]-4-methylbenzene sulphonamide]	100	100					1	0.8
C[C@]12C[C@H](c3ccc(C(=O)CO)cc3)C3=C4CCC(=O)C=C4CC[C@H]3[C@@H]1CC[C@@]2(O)C(F)(F)C(F)(F)F [20,20,21,21,21-pentafluoro-17-hydroxy-11β-[4-(hydroxyacetyl)phenyl]-19-nor-17α-pregna-4,9-dien-3-one, reference compound]			100		100			
CC(=O)c1ccc(C2CC3(C)C(CCC3(O)C(F)(F)C(F)(F)F)C3CCC4=CC(=O)CCC4=C23)cc1 (stereo not drawn) [11β-(4-Acetylphenyl)-20,20,21,21,21-pentafluoro-17-hydroxy-19-nor-17α-pregna-4,9-dien-3-one, reference compound]	100	100						
